Test results reported in ChEMBL document CHEMBL1201862, “PubChem BioAssay data set” (2004).
Calls of active or inactive are those of the source.

Experiments:
[1] = target: T1, Zinc finger protein mex-5 (Caenorhabditis elegans, UniProt Q9XUB2); assay: potency of MEX-5 RNA-binding blockers – biochemical, C. elegans, fluorescence polarization, dose response (AID 1960)
T1 sequence (Q9XUB2 whole entry): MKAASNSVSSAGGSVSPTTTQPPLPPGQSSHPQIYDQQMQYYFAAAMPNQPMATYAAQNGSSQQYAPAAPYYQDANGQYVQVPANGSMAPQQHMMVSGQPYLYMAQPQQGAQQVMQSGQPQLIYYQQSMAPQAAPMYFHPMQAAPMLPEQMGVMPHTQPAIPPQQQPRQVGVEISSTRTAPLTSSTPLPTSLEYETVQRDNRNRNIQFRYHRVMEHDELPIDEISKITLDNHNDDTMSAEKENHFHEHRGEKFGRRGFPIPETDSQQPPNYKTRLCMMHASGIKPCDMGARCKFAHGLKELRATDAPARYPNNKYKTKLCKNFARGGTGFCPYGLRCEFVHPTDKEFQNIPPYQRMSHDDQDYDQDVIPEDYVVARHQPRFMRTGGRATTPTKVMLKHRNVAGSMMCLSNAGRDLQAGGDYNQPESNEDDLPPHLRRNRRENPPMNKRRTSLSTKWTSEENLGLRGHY

[2] = target: T2, RNA-binding protein pos-1 (Caenorhabditis elegans, UniProt G5EF15); assay: disruptors of C. elegans POS-1 RNA interaction – biochemical, fluorescence polarization, dose response (AID 1964);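 further: purified POS-1 fused to maltose binding protein made in E. coli; potency of compounds blocking POS-1 binding to fluorescent RNA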
T2 sequence (G5EF15 whole entry): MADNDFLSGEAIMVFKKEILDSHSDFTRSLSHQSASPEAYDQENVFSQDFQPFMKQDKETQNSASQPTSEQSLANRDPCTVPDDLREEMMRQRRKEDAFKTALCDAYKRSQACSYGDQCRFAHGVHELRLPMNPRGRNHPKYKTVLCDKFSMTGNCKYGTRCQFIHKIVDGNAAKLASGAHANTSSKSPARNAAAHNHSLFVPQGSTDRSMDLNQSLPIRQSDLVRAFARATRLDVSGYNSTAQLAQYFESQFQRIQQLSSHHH

Exodeoxyribonuclease V = target: T3, Exodeoxyribonuclease V (Escherichia coli (strain K12), UniProt P04993+P07648+P08394); assay: RecBCD inhibition via phage-restricted bacterial growth – absorbance, V66 E. coli, mutant T4 phage, counter-screen for AddAB inhibitor project, dose response (AID 492957); assay type: functional, cell-based, Escherichia coli str. K-12 substr. MG1655
T3 sequence (P04993 whole entry): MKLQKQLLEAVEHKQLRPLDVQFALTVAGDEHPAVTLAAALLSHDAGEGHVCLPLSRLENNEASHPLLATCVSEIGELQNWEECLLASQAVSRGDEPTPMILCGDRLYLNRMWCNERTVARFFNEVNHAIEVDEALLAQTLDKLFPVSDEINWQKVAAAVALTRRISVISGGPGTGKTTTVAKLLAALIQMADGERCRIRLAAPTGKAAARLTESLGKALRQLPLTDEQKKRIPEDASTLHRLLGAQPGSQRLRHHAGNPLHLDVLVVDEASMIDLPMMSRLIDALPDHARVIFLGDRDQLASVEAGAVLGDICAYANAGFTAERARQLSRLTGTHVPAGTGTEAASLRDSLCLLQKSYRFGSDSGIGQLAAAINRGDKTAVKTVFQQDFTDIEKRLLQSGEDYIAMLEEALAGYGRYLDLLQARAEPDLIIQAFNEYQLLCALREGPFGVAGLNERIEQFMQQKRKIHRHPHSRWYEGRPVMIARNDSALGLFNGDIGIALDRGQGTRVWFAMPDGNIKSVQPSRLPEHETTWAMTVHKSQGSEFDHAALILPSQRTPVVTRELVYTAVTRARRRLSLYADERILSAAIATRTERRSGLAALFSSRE
T3 sequence (P07648 whole entry): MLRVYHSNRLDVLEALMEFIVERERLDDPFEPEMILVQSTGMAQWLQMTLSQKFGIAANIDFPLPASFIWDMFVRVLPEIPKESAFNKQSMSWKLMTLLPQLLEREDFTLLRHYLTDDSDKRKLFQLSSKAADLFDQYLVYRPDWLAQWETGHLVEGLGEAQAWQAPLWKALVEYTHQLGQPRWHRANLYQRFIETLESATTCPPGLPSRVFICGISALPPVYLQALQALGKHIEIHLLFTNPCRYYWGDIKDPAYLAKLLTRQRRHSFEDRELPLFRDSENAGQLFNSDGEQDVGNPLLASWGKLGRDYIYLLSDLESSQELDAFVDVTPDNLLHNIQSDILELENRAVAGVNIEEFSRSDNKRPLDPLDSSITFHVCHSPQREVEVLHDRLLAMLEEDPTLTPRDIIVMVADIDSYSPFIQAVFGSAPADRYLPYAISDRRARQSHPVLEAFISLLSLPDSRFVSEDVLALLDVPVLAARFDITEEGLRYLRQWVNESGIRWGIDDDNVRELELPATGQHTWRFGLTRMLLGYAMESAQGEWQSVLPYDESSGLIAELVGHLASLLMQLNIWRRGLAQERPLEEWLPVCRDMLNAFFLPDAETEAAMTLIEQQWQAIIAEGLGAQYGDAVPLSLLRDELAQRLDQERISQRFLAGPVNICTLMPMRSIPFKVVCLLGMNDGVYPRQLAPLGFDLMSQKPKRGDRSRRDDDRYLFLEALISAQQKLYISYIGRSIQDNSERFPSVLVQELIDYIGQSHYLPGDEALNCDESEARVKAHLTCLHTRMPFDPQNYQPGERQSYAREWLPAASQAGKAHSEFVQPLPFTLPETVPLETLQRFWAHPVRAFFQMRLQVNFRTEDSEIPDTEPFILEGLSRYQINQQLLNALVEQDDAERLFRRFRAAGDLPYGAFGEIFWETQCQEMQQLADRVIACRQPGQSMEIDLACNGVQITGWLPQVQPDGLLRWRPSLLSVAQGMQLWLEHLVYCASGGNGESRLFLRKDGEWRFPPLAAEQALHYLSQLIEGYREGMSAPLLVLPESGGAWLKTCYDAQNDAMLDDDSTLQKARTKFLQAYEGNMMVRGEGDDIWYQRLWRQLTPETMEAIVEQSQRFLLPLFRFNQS
T3 sequence (P08394 whole entry): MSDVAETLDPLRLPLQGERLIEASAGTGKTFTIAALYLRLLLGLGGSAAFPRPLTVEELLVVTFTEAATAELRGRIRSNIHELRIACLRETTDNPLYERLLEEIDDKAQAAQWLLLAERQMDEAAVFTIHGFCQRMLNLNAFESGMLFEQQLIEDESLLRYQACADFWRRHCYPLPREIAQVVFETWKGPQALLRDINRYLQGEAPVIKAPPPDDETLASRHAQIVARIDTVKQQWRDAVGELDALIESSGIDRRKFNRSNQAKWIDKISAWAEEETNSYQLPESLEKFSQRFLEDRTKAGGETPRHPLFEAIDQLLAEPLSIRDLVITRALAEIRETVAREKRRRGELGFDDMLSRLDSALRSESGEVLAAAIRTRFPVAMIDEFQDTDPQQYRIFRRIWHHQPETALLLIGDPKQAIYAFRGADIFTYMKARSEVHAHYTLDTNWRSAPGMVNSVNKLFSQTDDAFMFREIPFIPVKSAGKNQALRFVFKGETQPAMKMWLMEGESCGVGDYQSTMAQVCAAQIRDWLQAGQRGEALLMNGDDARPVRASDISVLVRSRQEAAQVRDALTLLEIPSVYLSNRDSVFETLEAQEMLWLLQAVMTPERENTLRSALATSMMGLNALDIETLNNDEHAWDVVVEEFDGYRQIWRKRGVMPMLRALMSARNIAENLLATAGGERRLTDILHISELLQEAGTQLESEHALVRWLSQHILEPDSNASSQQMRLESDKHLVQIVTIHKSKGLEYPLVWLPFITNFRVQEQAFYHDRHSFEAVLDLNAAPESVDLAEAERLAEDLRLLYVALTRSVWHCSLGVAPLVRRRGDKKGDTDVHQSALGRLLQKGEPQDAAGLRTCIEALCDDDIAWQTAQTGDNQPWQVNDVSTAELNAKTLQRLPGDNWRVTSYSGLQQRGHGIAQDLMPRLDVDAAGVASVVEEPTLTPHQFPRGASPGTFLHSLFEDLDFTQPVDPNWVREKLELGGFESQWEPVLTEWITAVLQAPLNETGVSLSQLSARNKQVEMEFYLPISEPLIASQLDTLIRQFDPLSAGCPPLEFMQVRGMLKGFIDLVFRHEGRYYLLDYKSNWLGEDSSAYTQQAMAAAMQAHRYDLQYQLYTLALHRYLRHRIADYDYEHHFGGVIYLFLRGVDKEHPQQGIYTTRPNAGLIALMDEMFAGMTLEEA

[3] = Counterscreen for AddAB inhibitors: absorbance-based bacterial cell-based high throughput dose response assay for inhibitors of bacterial viability. [Related pubchem assays (depositor defined):AID435030, AID449728, AID449731, AID488942, AID488955, AID488956]; assay type: functional
Vero [4] = assay: cells; assay type: functional; details: Chlorocebus sabaeus
[5] = microbe, parasite or virus in culture; assay type: functional; details: Mycobacterium tuberculosis
Jurkat = assay: blockers of NF-kB activation in T cells – Jurkat, luciferase reporter, luminescence, B- and T-cell, dose response (AID 489004); assay type: functional, cell-based; details: Homo sapiens;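 further: NF-kB luciferase reporter Jurkat cells stimulated with PMA plus ionomycin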
[6] = HEK-293T viability loss, compound-treated – cell-based, uHTS hits, cytotoxicity control for B/T-cell NF-kB inhibitor project, dose response (AID 489019); assay type: functional;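 further: IC50 reflects cytotoxicity as loss of cell viability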
Cytochrome P450 2D6 = Cytochrome P450 2D6 (Homo sapiens, UniProt P10635);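 further: CYP2D6 member of a cytochrome P450 panel assay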
Sequence of Cytochrome P450 2D6 (P10635 whole entry): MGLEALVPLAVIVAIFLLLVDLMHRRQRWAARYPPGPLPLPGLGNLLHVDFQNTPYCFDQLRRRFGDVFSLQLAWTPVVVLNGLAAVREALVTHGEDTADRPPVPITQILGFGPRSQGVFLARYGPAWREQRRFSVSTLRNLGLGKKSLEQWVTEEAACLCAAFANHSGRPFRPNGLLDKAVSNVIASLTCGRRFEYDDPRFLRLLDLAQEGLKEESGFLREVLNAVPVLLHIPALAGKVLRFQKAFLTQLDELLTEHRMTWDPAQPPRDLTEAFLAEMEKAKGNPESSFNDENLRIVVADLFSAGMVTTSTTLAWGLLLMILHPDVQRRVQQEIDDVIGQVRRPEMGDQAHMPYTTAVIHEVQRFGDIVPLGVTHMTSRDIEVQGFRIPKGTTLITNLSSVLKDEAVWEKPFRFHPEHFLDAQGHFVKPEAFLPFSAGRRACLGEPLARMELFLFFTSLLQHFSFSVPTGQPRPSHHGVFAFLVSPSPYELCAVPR

Vero [7] = assay: cells; assay type: functional, cell-based; details: Chlorocebus sabaeus
Cytochrome P450 3A4 = Cytochrome P450 3A4 (Homo sapiens, UniProt P08684);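 further: CYP3A4 tested as one member of a cytochrome P450 panel screen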
Sequence of Cytochrome P450 3A4 (P08684 whole entry): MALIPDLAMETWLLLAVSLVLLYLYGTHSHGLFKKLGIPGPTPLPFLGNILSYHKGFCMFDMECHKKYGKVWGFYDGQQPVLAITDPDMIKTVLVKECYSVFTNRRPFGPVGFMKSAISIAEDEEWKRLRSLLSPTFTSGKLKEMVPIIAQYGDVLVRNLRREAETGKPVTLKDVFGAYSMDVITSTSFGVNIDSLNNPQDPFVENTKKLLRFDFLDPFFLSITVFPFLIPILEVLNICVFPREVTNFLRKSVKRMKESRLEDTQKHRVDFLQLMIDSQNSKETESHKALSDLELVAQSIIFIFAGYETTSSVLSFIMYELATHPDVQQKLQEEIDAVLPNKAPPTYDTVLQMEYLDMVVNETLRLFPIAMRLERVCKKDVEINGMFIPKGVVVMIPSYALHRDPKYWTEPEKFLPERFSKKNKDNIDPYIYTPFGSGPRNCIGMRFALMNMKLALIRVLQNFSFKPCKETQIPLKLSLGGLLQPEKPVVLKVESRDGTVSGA

Cytochrome P450 2C19 = Cytochrome P450 2C19 (Homo sapiens, UniProt P33261); assay: Cytochrome panel assay with activity outcomes. Panel member name: p450-cyp2c19 Compounds with AC50 equal or less than 10 uM are considered active; assay type: functional
Sequence of Cytochrome P450 2C19 (P33261 whole entry): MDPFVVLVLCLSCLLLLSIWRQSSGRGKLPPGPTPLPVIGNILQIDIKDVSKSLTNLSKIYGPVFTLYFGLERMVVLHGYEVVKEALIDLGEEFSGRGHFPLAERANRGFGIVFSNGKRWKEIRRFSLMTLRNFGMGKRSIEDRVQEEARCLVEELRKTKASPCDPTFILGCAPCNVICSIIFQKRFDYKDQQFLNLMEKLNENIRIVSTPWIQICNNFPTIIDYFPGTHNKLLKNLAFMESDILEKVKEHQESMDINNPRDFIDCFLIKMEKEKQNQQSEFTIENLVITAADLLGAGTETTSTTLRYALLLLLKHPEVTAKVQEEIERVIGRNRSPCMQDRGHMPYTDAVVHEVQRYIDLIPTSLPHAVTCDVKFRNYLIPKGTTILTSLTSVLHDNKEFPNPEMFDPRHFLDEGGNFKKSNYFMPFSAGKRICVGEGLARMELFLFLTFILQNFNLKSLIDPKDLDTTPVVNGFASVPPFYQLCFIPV

[8] = viability loss of HMLE_sh_eGFP cells – cell-based, luminescence, counter-screen for HMLE_sh_ECad selective toxicity project, dose response (AID 463074); assay type: functional, Homo sapiens;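 further: HMLE human mammary epithelial cells expressing control shRNA against eGFP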
[9] = Luminescence Cell-Based Dose Retest to Confirm Inhibitors of Cancer Stem Cells. [Related pubchem assays (depositor defined):AID2717, AID2721]; assay type: functional; details: Homo sapiens

Structure (SMILES): CC(=O)Oc1cc2cccc(OC(C)=O)c(=O)c2c(OC(C)=O)c1OC(C)=O
- EC50 [1]: 2.01 µM (active)
- EC50 [2]: 5.6 µM (active)
- IC50 (Exodeoxyribonuclease V): > 119 µM (inactive)
- IC50 [3]: > 119 µM (inactive)

Structure (SMILES): COc1ccc(C(=O)C=Cc2ccc(OCc3ccccc3)c(OC)c2)cc1OC
- CC50 (Vero [4]): 20.9 µM (active)

Structure (SMILES): c1ccc2sc(Sc3ncnc4sccc34)nc2c1
- CC50 [5]: 32.9 µM (active)
- IC50 (Jurkat): 0.41 µM (active)
- IC50 [6]: > 80 µM (inactive)

Structure (SMILES): CC(C)(CN)CN
- AC50 (Cytochrome P450 2D6): inconclusive

Structure (SMILES): ClCCn1cnc2c(SCc3ccccc3Cl)ncnc21
- IC50 (Vero [7]): < 0.05 µM (active)

Structure (SMILES): C[C@@H](O)CC(C)(C)N.Oc1c(Cl)c(Cl)c(Cl)c(Cl)c1Cl
- AC50 (Cytochrome P450 3A4): inconclusive
- AC50 (Cytochrome P450 2D6): inactive
- AC50 (Cytochrome P450 2C19): inactive

Structure (SMILES): Cc1csc(NC(=O)c2ccc(COc3ccccc3)o2)n1
- AC50 [8]: 32.2 µM (active)
- AC50 [9]: 2.62 µM (active)

Structure (SMILES): CCN1CCN(C(=O)C2CCN(Cc3nc(-c4cccc(Cl)c4)oc3C)CC2)CC1
- CC50 (Vero [4]): > 25 µM (active)
- IC50 (Vero [7]): > 25 µM (active)
